The source made the active and inactive calls. No cut-off for these calls is given here.
Target: T1, 3-hydroxy-3-methylglutaryl-coenzyme A reductase (Rattus norvegicus) (UniProt P51639)
T1 sequence (whole entry): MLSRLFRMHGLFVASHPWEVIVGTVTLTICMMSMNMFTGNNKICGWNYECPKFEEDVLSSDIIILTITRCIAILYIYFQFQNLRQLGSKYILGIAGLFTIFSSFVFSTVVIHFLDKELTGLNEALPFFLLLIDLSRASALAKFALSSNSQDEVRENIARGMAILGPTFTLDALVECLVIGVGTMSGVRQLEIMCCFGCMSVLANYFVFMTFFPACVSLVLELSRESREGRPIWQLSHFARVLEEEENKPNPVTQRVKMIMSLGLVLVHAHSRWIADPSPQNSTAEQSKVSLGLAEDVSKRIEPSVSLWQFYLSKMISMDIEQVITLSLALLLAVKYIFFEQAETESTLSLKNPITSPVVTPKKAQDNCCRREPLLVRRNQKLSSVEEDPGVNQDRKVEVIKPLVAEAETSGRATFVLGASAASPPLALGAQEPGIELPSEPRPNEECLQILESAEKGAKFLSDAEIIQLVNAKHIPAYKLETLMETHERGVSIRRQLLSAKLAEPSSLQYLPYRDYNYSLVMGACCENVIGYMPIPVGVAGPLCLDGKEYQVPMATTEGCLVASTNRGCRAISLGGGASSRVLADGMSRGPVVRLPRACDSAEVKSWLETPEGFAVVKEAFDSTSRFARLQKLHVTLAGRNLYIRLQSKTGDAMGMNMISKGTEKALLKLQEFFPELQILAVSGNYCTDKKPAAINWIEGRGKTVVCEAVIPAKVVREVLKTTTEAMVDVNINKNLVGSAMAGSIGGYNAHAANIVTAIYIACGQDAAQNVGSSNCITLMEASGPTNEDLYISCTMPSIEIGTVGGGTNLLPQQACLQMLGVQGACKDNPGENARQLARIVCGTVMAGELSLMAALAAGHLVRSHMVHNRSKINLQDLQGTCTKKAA
Experiment: Biological activity against rat liver 3-hydroxy-3-methyl glutaryl coenzyme A reductase (HMGR) at a concentration of 10E-4 M; No inhibition
Assay type: tissue-based

Activity | SMILES
inactive | COC(=O)C[C@H](O)C[C@@H](O)Cc1ccncc1C(N)=O
inactive | COC(=O)C[C@H](O)C[C@H](O)Cc1ccncc1C(N)=O

From ChEMBL document CHEMBL1129778, “Design and synthesis of bisubstrate analogues for 3-hydroxy-3-methyl-glutaryl coenzyme a reductase” (Bioorg Med Chem Lett, 1996)
